Values after ≈ are worked out from the molar mass of the structure shown. Like-named read-outs stand apart in the source and are kept apart here.
Legend:
C. albicans NCPF3281 = experiment: Candida panel MIC, serial dilution in 96-well plates; format: cell-based, Candida albicans
In short: (§1)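 Overnight starter cultures were diluted to OD600 0.01 and added to serially diluted compound (128 to 0.25 μg/mL) in MOPS-buffered RPMI with 2% glucose, pH 7.0, giving 0.5-5×10^5 cells/mL. After 24 h at 37 °C, OD530 was measured and the ≥50% inhibition endpoint taken as MIC.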

C. krusei NCPF3876 = experiment: microbe, parasite or virus in culture; format: cell-based, Candida krusei; conditions: Pichia kudriavzevii
In short: (§2)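 MIC taken as lowest concentration inhibiting growth ≥50% relative to drug-free control, from OD530 after 24 hours at 37° C. Fungi at 0.5-5×10^5/mL were exposed to serially diluted compound in RPMI 1640/MOPS/2% glucose medium adjusted to pH 7.0.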

C. parapsilosis NCPF3209 = experiment: microbe, parasite or virus in culture; format: cell-based, Candida parapsilosis; conditions: Lodderomyces parapsilosis
In short: as §2

Candida auris TDG2211 = experiment: microbe, parasite or virus in culture; format: cell-based; conditions: Candidozyma auris
In short: (§3)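 MIC = lowest concentration inhibiting growth ≥50% relative to drug-free control, read by OD530 nm after 24 h at 37° C. Medium: RPMI 1640/MOPS/2% glucose, pH 7.0. Inoculum 0.5-5×10^5/mL.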

Candida auris TDG2506 = experiment: microbe, parasite or virus in culture; format: cell-based; conditions: Candidozyma auris
In short: as §3

C. auris TDG1912 = experiment: Candida panel MIC, serial dilution in 96-well plates; format: cell-based; conditions: Candidozyma auris, TDG1912; Table 4; 24 hours, ≥50% inhibition; read-out: MIC C. auris TDG1912
In short: as §1

C. tropicalis NCPF8760 = experiment: as above; format: cell-based
In short: as §1

Candida auris TDG1102 = experiment: as above; format: cell-based; conditions: Candidozyma auris, TDG1102; Table 4, extended panel; 24 hours, ≥50% inhibition; read-out: MIC Candida auris TDG1102
In short: as §1

Candida auris TDG2512 = experiment: as above; format: cell-based; conditions: Candidozyma auris, TDG2512; Table 4, extended panel; 24 hours, ≥50% inhibition; read-out: MIC Candida auris TDG2512
In short: as §1

C. albicans 3363 = experiment: Candida albicans panel MIC; format: cell-based; conditions: Table 6, Candida albicans panel
In short: (§4)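 MIC = lowest conc. with ≥50% inhibition vs drug-free fungus control, OD530 read. Serial dilution 128–0.25 μg/mL in RPMI/MOPS/2% glucose pH 7.0; 0.5-5×10^5 cells/mL; 37° C, 24 h.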

C. albicans 3645 = experiment: Candida albicans panel MIC; format: cell-based; conditions: Table 6, Candida albicans panel
In short: as §4

C. albicans 3880 = experiment: Candida albicans panel MIC; format: cell-based; conditions: Table 6, Candida albicans panel
In short: as §4

C. albicans 3881 = experiment: Candida albicans panel MIC; format: cell-based; conditions: Table 6, Candida albicans panel
In short: as §4

C. albicans 3882 = experiment: Candida albicans panel MIC; format: cell-based; conditions: Table 6, Candida albicans panel
In short: as §4

C. albicans 3990 = experiment: Candida albicans panel MIC; format: cell-based; conditions: Table 6, Candida albicans panel
In short: as §4

C. albicans 8112 = experiment: Candida albicans panel MIC; format: cell-based; conditions: Table 6, Candida albicans panel
In short: as §4

[1] = tested on: Aspergillus fumigatus ATCC 10894; experiment: Aspergillus panel MIC; format: cell-based; conditions: Table 8
Experimental: Starter cultures of fungal strains to be tested were grown in 3 mL of RPMI 2% glucose media incubated at 37° C. with shaking at 200 rpm overnight. The culture media used was 900 mL H2O; 10.4 g RPMI 1640 (with L-glutamine and a pH indicator but without bicarbonate); 34.5 g MOPS and 18 g glucose. The pH of the media was adjusted to 7.0 with 1 M sodium hydroxide.
Solutions of the compound to be tested were prepared by dissolving the compound in DMSO and subsequently into media to the desired concentrations. 200 μL of compound solution was then added to the wells of the 96-well plate using a serial dilution method row-by row of the plate to give a compound concentration gradient across the plate of from 128 μg/mL to 0.25 μg/mL. The last two rows of each plate were control rows containing the culture media alone and the media plus fungi.
The fungi starter cultures were diluted 1:10 in water in cuvettes. This was then further diluted to an optical density (OD600) of 0.01 in media. 100 μL of the fungi was added to each well giving a starting concentration of fungus of 0.5-5×10^5/mL. One species of fungus was used on each plate. The plates were then held at 37° C. for 24 hours.
A plate reader was used to measure growth in each well at OD530 nm and the MIC was determined for each test compound. The MIC is defined as the lowest concentration giving rise to inhibition of ≥50% of that of the drug-free control well containing the fungus and media.
The compound of Example 2 (which corresponds to compound number 2) was tested against a panel of Aspergillus strains using a method analogous to that described above for the Candida Panel.

C. auris strain TDG1912 = experiment: Galleria mellonella infection model, larval survival; format: in vivo; conditions: G. mellonella infected with C. auris TDG1912; survival over 120 hours
Experimental: The effects of test compounds in-vivo was assessed using a Galleria mellonella infection model.
G. mellonella were injected in a proleg with 10 μL of C. auris strain TDG1912 (OD4) at a concentration of 1×10^6 cfu/10 μL using a Hamilton syringe and left for 30 minutes to recover from injection and to allow infection to begin. The G. mellonella were then injected with 10 μL of the compound of the invention at either 50 mg/kg (10% DMSO) or 20 mg/kg (4% DMSO) or PBS containing 10% DMSO as an infection-only control. 10 larvae were selected for each treatment, and the experiment was repeated 3 times for the test compound and fluconazole. Survival of larvae was monitored for a 5 day period and results are presented as % survival over 120 hours (see FIG. 1).

[2] = tested on: C. auris (e.g. TDG1912, TDG2506 or 8984); experiment: microbe, parasite or virus in culture; format: cell-based, Candida auris; conditions: Candidozyma auris; efflux pump table; read-out: MIC Fluconazole, C. auris (e.g. TDG1912, TDG2506 or 8984)

## OC(Cn1cncn1)(Cn1cncn1)c1ccc(F)cc1F [Fluconazole, fluconazole, reference compound]
C. albicans NCPF3281; Candida albicans, NCPF3281, read-out: MIC Fluconazole, C. albicans 3281
  MIC: > 128 µg/mL
C. albicans NCPF3281; Candida albicans, NCPF3281, Table 4, common panel, 24 hours, ≥50% inhibition, read-out: MIC C. albicans NCPF3281
  MIC: ≤ 0.125 µg/mL
C. albicans NCPF3281; NCPF3281, Table 6, Candida albicans panel, read-out: MIC C. albicans NCPF3281
  MIC: ≤ 0.125 µg/mL
C. krusei NCPF3876; NCPF3876, read-out: MIC C. Krusei NCPF3876
  MIC: 0.5 to 8 µg/mL (≈ 1.63 to 26.1 µM)
C. krusei NCPF3876; NCPF3876, read-out: MIC Fluconazole, C. krusei 3876
  MIC: 32 µg/mL (≈ 104 µM)
C. krusei NCPF3876; NCPF3876, Table 4, common panel, 24 hours, ≥50% inhibition, read-out: MIC C. krusei NCPF3876
  MIC: 0.5 to 8 µg/mL (≈ 1.63 to 26.1 µM)
C. parapsilosis NCPF3209; NCPF3209, read-out: MIC C. Parapsilosis NCPF3209
  MIC: ≤ 0.25 µg/mL
C. parapsilosis NCPF3209; NCPF3209, read-out: MIC Fluconazole, C. parapsilosis 3209
  MIC: 0.5 µg/mL (≈ 1.63 µM)
C. parapsilosis NCPF3209; NCPF3209, Table 4, common panel, 24 hours, ≥50% inhibition, read-out: MIC C. parapsilosis NCPF3209
  MIC: ≤ 0.25 µg/mL
Candida auris TDG2211; TDG2211, read-out: MIC C. auris 2211
  MIC: 16 to 128 µg/mL (≈ 52.2 to 418 µM)
Candida auris TDG2211; TDG2211, Table 4, extended panel, 24 hours, ≥50% inhibition, read-out: MIC Candida auris TDG2211
  MIC: 64 µg/mL (≈ 209 µM)
Candida auris TDG2506; TDG2506, read-out: MIC C. auris 2506
  MIC: > 128 µg/mL
Candida auris TDG2506; TDG2506, Table 4, extended panel, 24 hours, ≥50% inhibition, read-out: MIC Candida auris TDG2506
  MIC: > 128 µg/mL
C. auris TDG1912
  MIC: > 128 µg/mL
C. tropicalis NCPF8760; NCPF8760, Table 4, common panel, 24 hours, ≥50% inhibition, read-out: MIC C. tropicalis NCPF8760
  MIC: 4 to 8 µg/mL (≈ 13.1 to 26.1 µM)
C. tropicalis NCPF8760; NCPF8760, read-out: MIC C. Tropicalis NCPF8760
  MIC: 4 to 8 µg/mL (≈ 13.1 to 26.1 µM)
Candida auris TDG1102
  MIC: 64 µg/mL (≈ 209 µM)
Candida auris TDG2512
  MIC: 16 µg/mL (≈ 52.2 µM)
C. albicans 3363
  MIC: 8 µg/mL (≈ 26.1 µM)
C. albicans 3645
  MIC: ≤ 0.125 µg/mL
C. albicans 3880
  MIC: 16 µg/mL (≈ 52.2 µM)
C. albicans 3881
  MIC: 8 µg/mL (≈ 26.1 µM)
C. albicans 3882
  MIC: 16 µg/mL (≈ 52.2 µM)
C. albicans 3990
  MIC: 8 µg/mL (≈ 26.1 µM)
C. albicans 8112
  MIC: 0.125 µg/mL (≈ 0.408 µM)
[1]
  Minimum inhibitory concentration Aspergillus fumigatus ATCC 10894: >64
C. auris strain TDG1912
  Protection against multi-drug resistant C. auris (larval survival): no significant effect
[2]
  MIC: > 128 µg/mL
